The source of these data is patent publication EP0560235B1, “Condensed heterocyclic ketone derivatives, their production and use” (priority 1992, dated 1993).

One experiment addresses T1, cholinesterase (Rattus norvegicus, UniProt P37136).
T1 construct: using the S1 fraction of a homogenate of male Wistar rat cerebral cortex as the cholinesterase source; from tissue; host or cells: male Wistar rat cerebral cortex, S1 fraction of homogenate
Nature of the experiment: Cholinesterase inhibitory activity assayed with (acetyl-[3H])-acetylcholine, S1 fraction of cerebral cortex homogenate. The class given is biochemical. The conditions noted are these: S1 fraction of male Wistar rat cerebral cortex homogenate; (acetyl-[3H])-acetylcholine substrate; 30 minutes incubation; read-out: Acetylcholinesterase inhibitory activity I C50. The method, then:
The cholinesterase inhibitory activity of the compound of this invention was assayed with (acetyl-[^3H])-acetylcholine. More specifically, using the S1 fraction of a homogenate of male Wistar rat cerebral cortex as the cholinesterase source, (acetyl[^3H])-acetylcholine as the substrate and the compound of this invention as the test sample were added. The mixture was incubated for 30 minutes, then the reaction was terminated, to which was added a toluene-based scintillant, then the mixture was shaken. The reaction product [^3H]-acetic acid was transferred to the toluene layer, which was subjected to determination of cholinesterase activity by counting with a liquid scintillation counter.

The target in a further experiment is T2, serotonin (5-HT) uptake (Rattus norvegicus, UniProt P31652).
T2 construct: Crude synaptosomal preparations (P2) were isolated after differential centrifugation; from tissue; host or cells: rat cerebral cortex and hippocampus, crude synaptosomal preparation (P2)
Put plainly: Monoamine uptake into crude synaptosomal preparations (P2) of cerebral cortex and hippocampus, [3H]-5-HT. The class given is biochemical, Rats. Here is the method:
Effects of the compound of this invention on monoamine uptake were investigated using [^3H]-norepinephirine(NE) and [^3H]-serotonin (5-HT). Rats were sacrificed by decapitation. The cerebral cortex and hippocampus were removed and homogenized in 10-15 volumes (W/V) of an ice-cold medium containing 0.32 M sucrose. Crude synaptosomal preparations (P2) were isolated after differential centrifugation at 1000 x g for 10 min and 20,000 x g for 30 min at 4°C. […] Synaptosomal membrane suspension (900 µl) was preincubated with the test compound dissolved in DMSO solution at 37°C for 5 min. […] Five minutes later, the reaction was stopped by the addition of 4 ml of ice-cold KRB and the reaction mixture was filtered through Whatman GF/B. Filters were washed twice with 4 ml of KRB and the radioactivity bound was counted with liquid scintillant. […] All compounds were tested at 10^-8, 10^-7, 10^-6 and 10^-5M.

T2 sequence (P31652 whole entry): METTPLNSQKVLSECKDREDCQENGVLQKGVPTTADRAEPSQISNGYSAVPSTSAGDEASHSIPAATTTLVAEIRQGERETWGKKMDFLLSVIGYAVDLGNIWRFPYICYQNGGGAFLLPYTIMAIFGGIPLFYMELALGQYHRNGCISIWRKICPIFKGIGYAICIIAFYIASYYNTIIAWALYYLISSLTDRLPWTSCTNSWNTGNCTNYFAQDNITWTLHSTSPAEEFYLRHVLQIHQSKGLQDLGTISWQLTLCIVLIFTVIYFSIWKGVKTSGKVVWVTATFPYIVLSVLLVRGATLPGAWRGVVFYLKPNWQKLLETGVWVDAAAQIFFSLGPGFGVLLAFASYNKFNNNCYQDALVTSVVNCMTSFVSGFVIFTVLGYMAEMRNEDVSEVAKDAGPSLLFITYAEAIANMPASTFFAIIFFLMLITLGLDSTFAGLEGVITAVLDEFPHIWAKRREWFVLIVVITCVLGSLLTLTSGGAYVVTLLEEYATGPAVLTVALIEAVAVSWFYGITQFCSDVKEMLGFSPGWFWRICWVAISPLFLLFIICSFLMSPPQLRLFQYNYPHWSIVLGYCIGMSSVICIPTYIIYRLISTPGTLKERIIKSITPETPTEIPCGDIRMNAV
T1 sequence (P37136 32-614): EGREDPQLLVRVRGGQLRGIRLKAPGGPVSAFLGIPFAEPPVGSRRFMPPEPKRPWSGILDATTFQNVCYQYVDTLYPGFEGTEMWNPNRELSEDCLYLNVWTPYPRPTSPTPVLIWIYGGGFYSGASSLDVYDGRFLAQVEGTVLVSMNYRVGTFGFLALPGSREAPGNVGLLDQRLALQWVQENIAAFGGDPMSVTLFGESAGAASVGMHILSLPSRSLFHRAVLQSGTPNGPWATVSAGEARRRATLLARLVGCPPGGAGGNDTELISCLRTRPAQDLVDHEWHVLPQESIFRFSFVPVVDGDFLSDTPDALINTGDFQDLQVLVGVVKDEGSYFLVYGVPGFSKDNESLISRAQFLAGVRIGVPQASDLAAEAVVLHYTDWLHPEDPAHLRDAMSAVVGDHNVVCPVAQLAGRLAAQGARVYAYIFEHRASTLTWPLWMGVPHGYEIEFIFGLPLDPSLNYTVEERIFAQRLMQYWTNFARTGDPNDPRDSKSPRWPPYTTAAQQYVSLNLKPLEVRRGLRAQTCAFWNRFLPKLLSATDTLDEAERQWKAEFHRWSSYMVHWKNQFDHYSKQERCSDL

With `CN1CCc2ccc(C(=O)CCN3CCN(Cc4ccccc4)CC3)cc2CC1` [compound 18], the IC50 at cholinesterase is 0.0338 µM.

`Cc1ccc(CN2CCc3ccc(C(=O)CCN4CCN(Cc5ccccc5)CC4)cc3CC2)cc1` [14-23]: the values for the IC50 at cholinesterase and at serotonin (5-HT) uptake were 0.0661 µM and 0.0583 µM, respectively.

`O=C(CCN1CCN(Cc2ccccc2)CC1)c1ccc2c(c1)CCN(Cc1cccc(Cl)c1)CC2` [14-4]: the IC50 at cholinesterase amounted to 0.147 µM.

Turning to `COc1ccc(CN2CCc3ccc(C(=O)CCN4CCN(Cc5ccccc5)CC4)cc3CC2)cc1` [14-29], the IC50 was found to be 0.0257 µM at cholinesterase and 0.0544 µM on serotonin (5-HT) uptake.

For `CC(C)CN1CCc2ccc(C(=O)CCN3CCN(Cc4ccccc4)CC3)cc2CC1` [14-33], the figures for the IC50 at cholinesterase and against serotonin (5-HT) uptake were 0.0341 µM and 0.0559 µM, respectively.

`O=C(CCN1CCN(Cc2ccccc2)CC1)c1ccc2c(c1)CCN(Cc1ccc(Cl)cc1)CC2` [14-10]: the IC50 at cholinesterase amounted to 0.167 µM.

As to `CC(=O)N1CCc2cc(C(=O)CCN3CCN(Cc4ccccc4)CC3)ccc21` [compound 16], the IC50 on cholinesterase was determined as 0.0251 µM.

For `COc1cccc(CN2CCc3ccc(C(=O)CCN4CCN(Cc5ccccc5)CC4)cc3CC2)c1` [14-27], the IC50 at cholinesterase worked out at 0.133 µM.

As for `O=C(CCN1CCN(Cc2cccc(Cl)c2)CC1)c1ccc2c(c1)CCN(Cc1ccccc1)CC2` [14-7], the IC50 at serotonin (5-HT) uptake is 0.0421 µM.

As to `COc1ccc(CCN2CCc3ccc(C(=O)CCN4CCN(Cc5ccccc5)CC4)cc3CC2)cc1OC` [14-36], the IC50 on cholinesterase is 0.0168 µM; at serotonin (5-HT) uptake, 0.0133 µM.

`O=C(CCN1CCN(Cc2ccccc2)CC1)c1ccc2c(c1)CCN(Cc1cccc(F)c1)CC2` [14-20]: the IC50 on cholinesterase worked out at 0.0478 µM.

Turning to `CCN1CCc2ccc(C(=O)CCN3CCN(Cc4ccccc4)CC3)cc2CC1` [14-5], on cholinesterase, the IC50 stood at 0.0188 µM.

Consider `Cc1ccccc1CN1CCc2ccc(C(=O)CCN3CCN(Cc4ccccc4)CC3)cc2CC1` [14-14], for which the IC50 at cholinesterase was 0.0636 µM.

Regarding `Cc1cccc(CN2CCc3ccc(C(=O)CCN4CCN(Cc5ccccc5)CC4)cc3CC2)c1` [14-25], the IC50 at cholinesterase is 0.0696 µM.

Consider `O=C(CCN1CCN(Cc2ccccc2)CC1)c1ccc2c(c1)CCN2Cc1ccccc1` [14-1], for which, on serotonin (5-HT) uptake, the IC50 was determined as 0.416 µM.

For `O=C(CCN1CCN(Cc2ccccc2Cl)CC1)c1ccc2c(c1)CCN(Cc1ccccc1)CC2` [14-6], the figures for the IC50 on cholinesterase and against serotonin (5-HT) uptake were 0.113 µM and 0.0345 µM, respectively.

For `O=C(CCN1CCN(Cc2ccccc2)CC1)c1ccc2c(c1)CN(Cc1ccccc1)CCC2` [14-2], on cholinesterase, the IC50 was determined as 0.538 µM.

In the case of `O=C(CCN1CCN(Cc2ccccc2)CC1)c1ccc2c(c1)CCN(CCc1ccccc1)CC2` [14-31], the results for the IC50 on cholinesterase and against serotonin (5-HT) uptake were 0.033 µM and 0.0305 µM, respectively.

Consider `N#Cc1ccc(CN2CCc3ccc(C(=O)CCN4CCN(Cc5ccccc5)CC4)cc3CC2)cc1` [14-19], for which the IC50 at cholinesterase stood at 0.0339 µM.

Take `COc1ccccc1CN1CCc2ccc(C(=O)CCN3CCN(Cc4ccccc4)CC3)cc2CC1` [14-21]: the IC50 on cholinesterase is 0.0226 µM.

As for `O=C(CCN1CCN(Cc2ccccc2)CC1)c1ccc2c(c1)CCN(C(=O)c1ccccc1)CC2` [17-3], the IC50 at cholinesterase is 0.0825 µM.

For `O=C(CCN1CCN(Cc2ccccc2)CC1)c1ccc2c(c1)CNCCC2` [13-3], the IC50 at cholinesterase is 0.0789 µM.

In the case of `COc1ccc(CN2CCc3ccc(C(=O)CCN4CCN(Cc5ccccc5)CC4)cc3CC2)cc1OC` [14-22], at cholinesterase, the IC50 was 0.0215 µM.
